In data set [1] the test system is influenza virus A/Taiwan/1/86 (H1N1). In words: organism not typed. It counts as cell-based. The note with it: MDCK, 72 h, CPE in MDCK cells, three days post-virus exposure, ATPlite. In general terms: ATP-based viability assays read luminescence as a measure of living cells.
The next data set can be described thus: in vitro. As to conditions: dog, TOX MDCK CC50.

The source of these data is patent US10597390B2, “Indoles for use in influenza virus infection” (Janssen Sciences Ireland UC, priority 2014, dated 2020).

Some results are limits rather than exact numbers.

Take `O=C(O)c1ccccc1C(=O)N[C@@H]1CCC[C@H](Nc2nc(-c3c[nH]c4c(F)cc(F)cc34)ncc2F)C1` (relative stereo) [Compound 224, 2-(((1R*,3S*)-3-((2-(5,7-difluoro-1H-indol-3-yl)-5-fluoropyrimidin-4-yl)amino)cyclohexyl)carbamoyl)benzoic Acid]: the melting point – broadly, the temperature, or range, at which the solid turns liquid – is 201.5 °C. Besides, the IC50 (in general, the midpoint of a concentration-inhibition curve) in data set [1] turned out to be 0.16 µM. Moreover, the CC50 (as a rule, the concentration at which the toxic effect on the cells reaches its halfway point) at 3 days in the data set “in vitro” is over 5 µM.

As to `Cc1cc(C(=O)N[C@@H]2CCC[C@H](Nc3nc(-c4c[nH]c5c(F)cc(Cl)cc45)ncc3F)C2)n[nH]1` [Compound 43], the melting point worked out at 189.2 °C. Further, the IC50 in data set [1] amounted to 0.004 µM. The molecule further had a half-maximal cytotoxic concentration (CC50) at 3 days in “in vitro” of 2.7 µM.

In turn, `CC(C)(C)[C@H](CC(=O)O)Nc1nc(-c2c[nH]c3c(F)cc(F)cc23)c(C#N)cc1F` [Compound 218] gave a melting point of over 280 °C. In data set [1], this molecule showed an IC50 of 0.003 µM. Moreover, in “in vitro”, it took 0.24 µM to reach half-maximal cytotoxicity (CC50 at 3 days).

For the molecule `CC(=O)NCc1cc(F)c(N[C@@H]2CCC[C@H](NC(=O)N3CCCC3)C2)nc1-c1c[nH]c2c(F)cc(F)cc12` [Compound 248], the melting point was under 260 °C. In addition, the IC50 in data set [1] worked out at 0.05 µM. The CC50 at 3 days in “in vitro” is over 25 µM.

`O=C(N[C@@H]1CCC[C@H](Nc2nc(-c3c[nH]c4c(F)cc(F)cc34)ncc2F)C1)c1cc[nH]n1` [Compound 126] returned a melting point of over 300 °C. Further, the IC50 in data set [1] was found to be 0.002 µM. In the data set “in vitro”, this molecule returned a CC50 at 3 days of 10 µM.

Take `Cc1cccnc1C(=O)N[C@@H]1CCC[C@H](Nc2nc(-c3c[nH]c4c(F)cc(Cl)cc34)ncc2F)C1` [Compound 32]: the melting point was found to be 226.5 °C. Besides, 0.009 µM corresponded to half-maximal inhibition in data set [1] (IC50). The same molecule registered a half-maximal cytotoxic concentration (CC50) at 3 days in “in vitro” of over 22 µM.

`Nc1cccc(C(=O)N[C@@H]2CCC[C@H](Nc3nc(-c4c[nH]c5c(F)cc(F)cc45)ncc3F)C2)n1` [Compound 106]: the melting point was determined as 190 °C. The molecule further gave an IC50 in data set [1] of 0.005 µM. For the same molecule, the cytotoxic concentration (CC50) at 3 days in the data set “in vitro” is 10.3 µM.

Consider `Cc1cc(F)c2[nH]cc(-c3ncc(F)c(N[C@@H]4CCC[C@@H](NC(=O)N5CCCC5)C4)n3)c2c1` (racemic) [Compound 20], for which the melting point is 94 °C. Besides, in data set [1], 0.012 µM corresponded to half-maximal inhibition (IC50). The same molecule registered a CC50 at 3 days in “in vitro” of 15.1 µM.

`O=C(N[C@@H]1CCC[C@H](Nc2nc(-c3c[nH]c4c(F)cc(F)cc34)ncc2F)C1)c1c[nH]cn1` [Compound 142]: the melting point amounted to 219.9 °C. Half-maximal inhibition in data set [1] (IC50) required 0.002 µM. Also, the CC50 at 3 days in the data set “in vitro” amounted to 10 µM.

`Cn1cnc(C(=O)N[C@@H]2CCC[C@H](Nc3nc(-c4c[nH]c5c(F)cc(C(F)(F)F)cc45)ncc3F)C2)c1` (racemic) [Compound 264] showed a melting point of 266.5 °C. Also, half-maximal inhibition in data set [1] (IC50) required 0.019 µM. The 50% cytotoxic concentration (CC50) at 3 days in “in vitro” is 3.8 µM.

`Cc1c(C(=O)N[C@@H]2CCC[C@H](Nc3nc(-c4c[nH]c5c(F)cc(F)cc45)ncc3F)C2)nnn1C` [Compound 117] showed a melting point of 202 °C. In data set [1], this molecule returned an IC50 of 0.011 µM. Further, in “in vitro”, half-maximal cytotoxicity (CC50 at 3 days) was put at 8.7 µM.

For the molecule `Cc1nc(C(=O)N[C@@H]2CCC[C@H](Nc3nc(-c4c[nH]c5c(F)cc(F)cc45)ncc3F)C2)no1` [Compound 118], the melting point was found to be 233 °C. In data set [1], this molecule gave a concentration for half-maximal inhibition (IC50) of 0.043 µM. In the data set “in vitro”, this molecule registered a CC50 at 3 days of over 25 µM.

Take `O=C(N[C@@H]1CCC[C@H](Nc2nc(-c3c[nH]c4c(F)cc(F)cc34)ncc2F)C1)c1ccc2ncccc2n1` [Compound 100]: the melting point was found to be 84.6 °C. In data set [1], this molecule returned an IC50 of 0.054 µM. Also, in the data set “in vitro”, half-maximal cytotoxicity (CC50 at 3 days) was put at 12.4 µM.

Molecule `Cc1cc(F)c2[nH]cc(-c3ncc(F)c(N[C@@H](CC(=O)O)C(C)(C)c4ccccn4)n3)c2c1` [Compound 239] showed a melting point of 219 °C. This molecule also had an IC50 in data set [1] of 0.01 µM. The molecule further yielded a CC50 at 3 days in the data set “in vitro” of 15.3 µM.

`NC(=O)c1cc(F)c(N[C@@H]2CCC[C@H](NC(=O)N3CCCC3)C2)nc1-c1c[nH]c2c(F)cc(F)cc12` (racemic) [Compound 23] registered a melting point of 249.2 °C. In addition, the concentration for half-maximal inhibition (IC50) in data set [1] is 0.14 µM. In addition, the CC50 at 3 days in “in vitro” was over 25 µM.
